# Columns and labels:
# AR LBD dimerization = target: T1, AR LBD dimerization (Homo sapiens, UniProt P10275); test: Acceptor photobleaching FRET microscopy assay in HEK293T cells; format: cell-based; conditions: 10 μM, 10 nM DHT
# T1 construct: LBD residues (613 -920); expressed in transfected cells; host or cells: HEK293T
# Method: (22.86 nM - 50 μM). After another 24 h incubation, the luciferase activities were determined by the Dual -Glo Luciferase system (#E1910, Promega) according to the […]
# Acceptor Photobleaching Fluorescence Resonance Energy Transfer (FRET) […]
# The pCMV-cyan fluorescent protein (CFP, #D2623) and pCMV -yellow fluorescent protein (YFP, #D2716) plasmids were purchased from Beyotime Biotechnology. We constructed pCMV -YFP-(AR LBD) and pCMV -(AR LBD)-CFP by cloning human AR LBD residues (613 -920) into the fluorescent protein vector using seamless cloning kit (#C112-01, CloneExpress II, Vazyme). HEK293T (1× 10^5 cells/well) cells were cultured in 5% CSS DMEM media in 12-well plate with glass coverslips. The next day, ce lls were transfected with 400 ng pCMV -YFP-(AR LBD), 400 ng pCMV -(AR LBD) -CFP together with HG -Trans Gene TM transfection reagent (#TG-10012, Health & Gene™). Free YFP and CFP proteins were transfected together as control. […]
# The FRET assay was then tested by Olympus FV1000 equipped with a UPlanSApo 60× /1.35 NA oil objective. CFP was detected using 405 nm excitation while YFP was excited using 515 nm at moderate laser power, and the emission was detected using a 480-495 nm bandpass emission filter and 535-565 nm bandpass emission filter, respectively.
# The first pair of CFPbefore and YFPbefore was collected. […] The apparent FRET efficiency was calculated after background […]
# PC3 = test: MTT cell viability assay, PC3; format: cell-based; conditions: 72 h
# Method: 3-(4,5-dimethythiazol-2-yl)-2,5-diphenyl-2-H-tetrazolium bromide (MTT) colorimetric assay was employed to investigate cell viability. Cells were seeded into 96-well plates with 2-5× 10^3 cells per well (5× 10^3 cells/well for LNCaP, 22RV1, NIH-3T3, GES-1, Chang, […]
# NCI-H1299, U2OS, U87) for 1 day incubation at 37 °C. Then, the cells were treated with various concentrations of compounds (22.86 nM - 50 μM) and incubated for 72 h. Then, 10 μl MTT (5 mg/ml) was added into each well and incubated for 4 h. Afterwards, 100 μl of triplex 10% SDS-0.1% HCl-phosophate-buffered saline (PBS) solutions was added into each well and incubated for overnight. The absorbance at 570 nm was measured (Eon, Bioteck, Winooski, VT). […]
# [1] = test system: endogenous PSA and AR in LNCaP cells; test: Western blot of PSA and AR in LNCaP cells; format: cell-based; conditions: 10 nM DHT, 48 h
# Method: individually, and all in the presence of 10 nM DHT and incubated for 48 h. Then, the cells were harvested, followed by separating the cell lysate using 10% SDS-PAGE and electro-transfer to a polyvinylidene fluoride (PVDF) membrane (Bio -Rad). Blocking buffer (#P0023B, Beyotime Biotechnology) were used to block the membranes. After 0.5
# (§1) h incubation at room temperature, each membrane was further incubated with specific
# (§2) Lamin B1, #AF1408, Beyotime Biotechnology) and then the corresponding secondary antibody (HRP-conjugated Goat Anti-Rabbit IgG, # D110058, Sangon Biotech). The Image J program was performed for quantitative analysis of the immunoreactive bands.
# [2] = test system: DHT-induced AR nuclear translocation in LNCaP cells; test: Nuclear and cytoplasmic fractionation, AR nuclear translocation; format: cell-based; conditions: 10 μM, 10 nM DHT, 16 h
# Method: as §1, §2
# Extraction of Nuclear and Cytoplasmic Fractions
# presence of 10 nM DHT and incubated for 16 h. The NE-PER Nuclear and Cytoplasmic
# extraction of nuclear and cytoplasmic proteins according to manufacturer’s protocol.
# Solubility (statement) = format: physicochemical
# FL-AR^F876L = FL-AR^F876L (Homo sapiens, UniProt P10275, F877L); test: Dual-luciferase reporter assay for FL-AR F876L in PC3 cells
# Sequence of FL-AR^F876L (P10275 whole entry F877L): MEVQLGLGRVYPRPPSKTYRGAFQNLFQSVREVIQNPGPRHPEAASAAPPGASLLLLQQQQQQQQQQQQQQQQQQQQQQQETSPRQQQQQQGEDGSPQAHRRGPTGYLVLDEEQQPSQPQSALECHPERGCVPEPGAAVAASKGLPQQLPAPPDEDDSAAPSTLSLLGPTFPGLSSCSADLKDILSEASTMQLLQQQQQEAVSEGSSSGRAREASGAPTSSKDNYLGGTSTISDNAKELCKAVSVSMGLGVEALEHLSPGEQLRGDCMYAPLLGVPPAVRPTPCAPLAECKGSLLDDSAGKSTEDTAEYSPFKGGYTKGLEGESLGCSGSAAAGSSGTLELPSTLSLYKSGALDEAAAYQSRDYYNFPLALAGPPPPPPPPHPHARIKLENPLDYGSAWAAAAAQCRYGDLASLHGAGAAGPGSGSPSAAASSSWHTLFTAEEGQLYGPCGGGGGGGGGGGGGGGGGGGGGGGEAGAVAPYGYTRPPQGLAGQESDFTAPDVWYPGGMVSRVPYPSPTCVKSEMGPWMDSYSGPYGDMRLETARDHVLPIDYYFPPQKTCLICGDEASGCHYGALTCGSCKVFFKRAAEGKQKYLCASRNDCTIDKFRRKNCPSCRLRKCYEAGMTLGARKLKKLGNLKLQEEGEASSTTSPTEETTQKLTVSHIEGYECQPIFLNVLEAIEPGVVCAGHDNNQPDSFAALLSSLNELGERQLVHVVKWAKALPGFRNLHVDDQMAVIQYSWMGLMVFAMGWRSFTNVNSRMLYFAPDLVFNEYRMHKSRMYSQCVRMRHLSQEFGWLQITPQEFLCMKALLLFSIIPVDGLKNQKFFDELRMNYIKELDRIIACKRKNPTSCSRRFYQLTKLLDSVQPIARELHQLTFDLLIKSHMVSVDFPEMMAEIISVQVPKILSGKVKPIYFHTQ
# Method: Luciferase Reporter Assays for FL -ARF876L and FL-ARF876L/T877A
# constructed on the basis of the human full length wild type AR plasmid pCMV -hAR
# transfected with 70 ng/well of FL -AR plasmid together with 24 ng of ARR2PB -Luc, and 5 ng of Renilla. After 1 day incubation at 37 °C , the antagonistic models were employed
# T1 sequence (P10275 613-920): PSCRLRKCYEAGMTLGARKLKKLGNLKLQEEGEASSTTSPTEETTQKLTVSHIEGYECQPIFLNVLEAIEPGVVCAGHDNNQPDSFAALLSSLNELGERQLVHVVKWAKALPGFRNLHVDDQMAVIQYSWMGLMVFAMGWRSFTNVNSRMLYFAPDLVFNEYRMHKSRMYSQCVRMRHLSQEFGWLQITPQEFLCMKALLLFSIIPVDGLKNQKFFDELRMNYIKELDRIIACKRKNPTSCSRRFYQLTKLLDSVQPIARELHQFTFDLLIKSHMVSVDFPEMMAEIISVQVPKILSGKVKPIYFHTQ
compound,measurement,setting,value
CC(=O)Cc1nsc(NC(=O)c2cc(-c3cccc(C(F)(F)F)c3)oc2C)n1 [Compound M17-B15],FRET efficiency (AR LBD dimerization),AR LBD dimerization,lower FRET efficiency
same,inhibition on the cell viability of PC3,PC3,does not show obvious inhibition
same,AR levels (Western blot),[1]; LNCaP,does not affect
same,endogenous PSA production (Western blot),"[1]; LNCaP, 0.1, 1, 10 μM",remarkably inhibited
same,DHT-induced AR nuclear translocation,[2],inhibit
same,solubility,Solubility (statement),poor solubility
same,IC50,FL-AR^F876L,0.16 µM
